Laboratory results published in US20100034878A1 (priority 2006, published 2010).
Where two headings read alike, the source gives them in different places.

Assays:
[1] = in vivo; cited from earlier work
[2] = in vivo; cited from earlier work; remark: listed apart in the source
CYP 2C9 = CYP 2C9 (Homo sapiens, UniProt P11712); settings: cited from earlier work
[3] = daily vitamin K supplementation and INR stability in patients with very unstable INRs; assay type: in vivo; settings: eight patients with very unstable INR on VKA
Description: The recommended dietary allowance for vitamin K is approximately 70 mcg. […] In addition, the administration of a VKA often requires that the patient take a half tablet on some days while other patients may require 1.5 or 2 tablets on other days. Consequently, the workable range of vitamin K per tablet is 10 mcg to 600 mcg, the preferred range is 25 mcg to 400 mcg, and the most preferred is 50 mcg to 200 mcg.
It was tested whether daily vitamin K supplementation would improve stability of the INR in patients who had very unstable INRs. […] The VKORC1 status itself was not assessed because the test was done prior to the VKORC1 gene being identified. INR values were collected for several months before and after daily vitamin K was started in eight patients with very unstable INR values.

Sequence of CYP 2C9 (P11712 whole entry): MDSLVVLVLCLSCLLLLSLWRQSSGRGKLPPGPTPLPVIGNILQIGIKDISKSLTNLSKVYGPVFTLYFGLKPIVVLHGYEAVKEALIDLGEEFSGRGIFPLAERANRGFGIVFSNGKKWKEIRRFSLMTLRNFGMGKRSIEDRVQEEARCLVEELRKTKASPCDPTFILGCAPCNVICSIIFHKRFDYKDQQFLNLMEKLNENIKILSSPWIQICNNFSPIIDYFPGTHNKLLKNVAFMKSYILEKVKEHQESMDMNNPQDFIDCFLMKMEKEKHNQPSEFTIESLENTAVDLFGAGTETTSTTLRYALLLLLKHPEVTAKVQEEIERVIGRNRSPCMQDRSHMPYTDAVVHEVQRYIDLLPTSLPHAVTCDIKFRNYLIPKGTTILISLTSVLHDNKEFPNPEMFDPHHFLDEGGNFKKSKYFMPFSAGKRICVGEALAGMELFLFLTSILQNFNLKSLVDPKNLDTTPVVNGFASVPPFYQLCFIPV

Molecule: CCC(c1ccccc1)c1c(O)c2ccccc2oc1=O (racemic) [Racemic phenprocoumon, phenprocoumon]
- fraction eliminated as the parent drug [1]: approximately 40%
- elimination half-life [2]: approximately 156 hrs

Molecule: CC(=O)C[C@H](c1ccccc1)c1c(O)c2ccccc2oc1=O (single isomer, unassigned) [R-isomer of warfarin]
- metabolism by the 2C9 enzyme (CYP 2C9): not metabolized by the 2C9 enzyme

Molecule: CC(=O)C[C@@H](c1ccccc1)c1c(O)c2ccccc2oc1=O (single isomer, unassigned) [S-isomer of warfarin]
- metabolism by the 2C9 enzyme (CYP 2C9; hepatic cytochrome P-450 2C9): almost totally metabolized by the 2C9 enzyme

Molecule: vitamin K
- fluctuation of INRs after starting daily vitamin K supplement [3]: fluctuated less
- percent of INRs in range after versus before starting daily vitamin K ([3]; daily vitamin K supplement, INR collected several months before and after): more than doubled
